According to US8518957B2, “Methanocarba adenosine derivatives, pharmaceutical compositions, and method of reducing intraocular pressure” (The United States of America, as represented by the …, priority 2009, dated 2013):

Columns and labels:
[1] = target: T1, human A1 AR (Homo sapiens, UniProt P30542); assay: Radioligand binding at human A1 AR ([3H]NECA, membranes of CHO cells); settings: for Ki: Example 7, agonist radioligand [3H]45, read-out: AR Affinity Ki, nM, A1
T1 construct: expressed in transfected cells
T1 sequence (P30542 1-326): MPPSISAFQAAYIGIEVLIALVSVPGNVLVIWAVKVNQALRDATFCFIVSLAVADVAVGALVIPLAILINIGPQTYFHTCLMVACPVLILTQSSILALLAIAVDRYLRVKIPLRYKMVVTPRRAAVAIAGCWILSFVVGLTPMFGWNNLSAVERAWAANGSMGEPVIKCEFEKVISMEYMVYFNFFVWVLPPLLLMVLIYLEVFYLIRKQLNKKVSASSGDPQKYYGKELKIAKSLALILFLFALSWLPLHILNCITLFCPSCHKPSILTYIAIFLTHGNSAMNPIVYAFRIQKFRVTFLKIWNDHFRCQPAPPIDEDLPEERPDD
Description: (§1) [^3H](2-[p-(2-Carboxyethyl)phenyl-ethylamino]-5′-N-ethylcarboxamido-adenosine) (37, [^3H]CGS21680, 40.5 Ci/mmol) and [^125I]N^6-(4-amino-3-iodobenzyl)adenosine-5′-N-methyluronamide (38, [^125I]I-AB-MECA, 2200 Ci/mmol) were purchased from Perkin-Elmer Life and Analytical Science (Boston, Mass.). Test compounds were prepared as 5 mM stock solutions in DMSO and stored frozen at −20° C.
(§2) CHO cells stably expressing the recombinant hA1 and hA3Rs, and HEK-293 cells stably expressing the hA2AAR were cultured in Dulbecco's modified Eagle medium (DMEM) and F12 (1:1) supplemented with 10% fetal bovine serum, 100 units/mL penicillin, 100 μg/mL streptomycin, and […] glutamine. In addition, 800 μg/mL geneticin was added to the A2A media, while 500 μg/mL hygromycin was added to the A1 and A3 media. After harvesting, cells were homogenized and suspended in PBS. Cells were then centrifuged at 240 g for 5 min, and the pellet was resuspended in 50 mM Tris-HCl buffer (pH 7.5) containing 10 mM MgCl2. The suspension was homogenized and was then ultra-centrifuged at 14,330 g for 30 min at 4° C. The resultant pellets were resuspended in Tris buffer, incubated with adenosine deaminase (3 units/mL) for 30 min at 37° C. The suspension was homogenized with an electric homogenizer for 10 sec, pipetted into 1 mL vials and then stored at −80° C. until the binding experiments were conducted. The protein concentration was measured using the BCA Protein Assay Kit from Pierce Biotechnology, Inc. (Rockford, Ill.).
(§3) Into each tube in the binding assay was added 50 μL of increasing concentrations of the test ligand in Tris-HCl buffer (50 mM, pH 7.5) containing 10 mM MgCl2, 50 μl, of the appropriate agonist radioligand, and finally 100 μL of membrane suspension. For the A1AR (22 μg of protein/tube) the radioligand used was [^3H]36 (final concentration of 3.5 nM). For the A2AAR (20 μg/tube) the radioligand used was [^3H]37 (10 nM). For the A3AR (21 μg/tube) the radioligand used was [^125I]38 (0.34 nM). Nonspecific binding was determined using a final concentration of 10 μM unlabeled 36 diluted with the buffer. The mixtures were incubated at 25° C. for 60 min in a shaking water bath. Binding reactions were terminated by filtration through Brandel GF/B filters under a reduced pressure using a M-24 cell harvester (Brandel, Gaithersburg, Md.). Filters were washed three times with 3 mL of 50 mM ice-cold Tris-HCl buffer (pH 7.5). Filters for A1 and A2AAR binding were placed in scintillation vials containing 5 mL of Hydrofluor scintillation buffer and counted using a Perkin Elmer Liquid Scintillation Analyzer (Tri-Carb 2810TR). Filters for A3AR binding were counted using a Packard Cobra II γ-counter. The Ki values were determined using GraphPad Prism for all assays.
(§4) [^3H](2-[p-(2-carboxyethyl)phenyl-ethylamino]-5′-N-ethylcarboxamido-adenosine) ([^3H]CGS21680, 40.5 Ci/mmol) and [^125I]N^6-(4-amino-3-iodobenzyl)adenosine-5′-N-methyluronamide ([^125I]I-AB-MECA, 2200 Ci/mmol) were purchased from PerkinElmer. Test compounds were prepared as 5-mM stock solutions in DMSO and stored frozen at −20° C.
(§5) Chinese hamster ovary (CHO) cells were generated by stably expressing the recombinant hA1 and hA3 and human embryonic kidney (HEK) 293 cells stably expressing the hA2AAR in DMEM and F12 (1:1) supplemented with 10% fetal bovine serum, 100 units/mL penicillin, 100 μg/mL streptomycin, and 2 μmol/mL glutamine. 800 μg/mL Geneticin were added to the A2A media and 500 μg/mL hygromycin to the A1 and A3 media. After harvesting the cells, they were homogenized with an electric homogenizer for 10 sec, pipetted them into 1-mL vials, and then stored them at −80° C. until the binding experiments were conducted. The protein concentration was measured with a BCA Protein Assay Kit from Pierce Biotechnology (Rockford, Ill.). […]

[2] = target: T2, human A3AR (Homo sapiens, UniProt P0DMS8); assay: Radioligand binding at human A3 AR ([125I]I-AB-MECA, membranes of CHO cells); settings: Example 7; agonist radioligand [125I]47; read-out: AR Affinity Ki, nM, A3
T2 construct: expressed in transfected cells
T2 sequence (P0DMS8 1-318): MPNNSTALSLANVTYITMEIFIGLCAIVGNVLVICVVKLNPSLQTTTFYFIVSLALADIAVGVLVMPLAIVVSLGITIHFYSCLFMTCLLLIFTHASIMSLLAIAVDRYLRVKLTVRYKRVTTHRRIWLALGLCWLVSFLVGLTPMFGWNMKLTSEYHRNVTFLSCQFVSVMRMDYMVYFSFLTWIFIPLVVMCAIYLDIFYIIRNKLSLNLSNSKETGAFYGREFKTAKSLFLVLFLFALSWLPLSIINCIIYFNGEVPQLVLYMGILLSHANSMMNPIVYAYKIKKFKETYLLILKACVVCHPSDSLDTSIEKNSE
Description: Test compounds were prepared as 5 mM stock solutions in DMSO and stored frozen at −20° C.
as §2
as §3, with “For the A1AR (22 μg of protein/tube) the radioligand used was [^3H]36 (final concentration of 3.5 nM).” left out, “For the A3AR (21 μg/tube) the radioligand used was [^125I]38 (0.34 nM).” left out, “Filters for A1 and A2AAR binding were placed in scintillation vials containing 5 mL of Hydrofluor scintillation buffer and counted using a Perkin Elmer Liquid Scintillation Analyzer (Tri-Carb 2810TR).” left out
Test compounds were prepared as 5-mM stock solutions in DMSO and stored frozen at −20° C.
Chinese hamster ovary (CHO) cells were generated by stably expressing the recombinant hA1 and hA3 and human embryonic kidney (HEK) 293 cells stably expressing the hA2AAR in DMEM and F12 (1:1) supplemented with 10% fetal bovine serum, 100 units/mL penicillin, 100 μg/mL streptomycin, and 2 μmol/mL glutamine. 800 μg/mL Geneticin were added to the A2A media and 500 μg/mL hygromycin to the A1 and A3 media. After harvesting the cells, they were homogenized with an electric homogenizer for 10 sec, pipetted them into 1-mL vials, and then stored them at −80° C. until the binding experiments were conducted. The protein concentration was measured with a BCA Protein Assay Kit from Pierce Biotechnology (Rockford, Ill.).
Each tube in the binding assay contained 50 μL of increasing concentrations of the test ligand in Tris-HCl buffer (50 mM, pH 7.5) containing 10 mM MgCl2, 50 μL of the appropriate agonist radioligand, and 100 μL membrane suspension, added sequentially. […] For the A2AAR (20 μg/tube), the radioligand [^3H]CGS21680 was used (−10 nM). […] The mixtures were incubated at 25° C. for 60 min in a shaking water bath. The binding reactions were terminated by filtration through Brandel GF/B filters under a reduced pressure with a M-24 cell harvester (Brandel, Gaithersburg, Md.). Filters were washed three times with 3 mL 50-mM ice-cold Tris-HCl buffer (pH 7.5). […] The filters were counted for A3AR binding with a Packard Cobra II γ-counter (PerkinElmer). The Ki values were determined with GraphPad Prism for all assays.

[3] = target: T3, hA2AAR (Homo sapiens, UniProt P29274); assay: Radioligand binding at human A2A AR ([3H]CGS21680, membranes of HEK-293 cells)
T3 construct: expressed in transfected cells
Description: as §1, §2, §3, §4, §5

T3 sequence (P29274 whole entry): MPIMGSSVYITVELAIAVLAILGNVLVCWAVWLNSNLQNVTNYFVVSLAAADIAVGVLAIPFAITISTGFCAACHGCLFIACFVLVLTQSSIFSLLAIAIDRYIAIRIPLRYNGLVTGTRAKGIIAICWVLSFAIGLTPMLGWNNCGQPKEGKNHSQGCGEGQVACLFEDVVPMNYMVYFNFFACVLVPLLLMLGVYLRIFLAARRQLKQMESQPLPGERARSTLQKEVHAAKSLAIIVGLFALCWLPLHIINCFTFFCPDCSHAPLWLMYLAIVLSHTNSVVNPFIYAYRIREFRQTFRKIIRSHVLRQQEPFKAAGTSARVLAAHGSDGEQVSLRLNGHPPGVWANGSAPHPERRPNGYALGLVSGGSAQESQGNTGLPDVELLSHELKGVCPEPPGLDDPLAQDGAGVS

Row | Ki [1] [nM] | Ki [2] [nM] | inhibition at 10 µM [3] [%] | inhibition at 10 µM [1] [%] | SMILES
1 | 2420 ± 230 | 71.7 ± 54 | 28.6 | – | CNC(=O)[C@@]12C[C@@H]1[C@@H](n1cnc3c(NCc4cccc(C#CCCCCc5cn(-c6ccc(F)c([N+](=O)[O-])c6)nn5)c4)nc(Cl)nc31)[C@H](O)[C@@H]2O [Compound 204, (1S,2R,3S,4R,5S)-4-(2-Chloro-6-(3-(6-(1-(4-fluoro-3-nitrophenyl)-1H-1,2,3-triazol-4-yl)hex-1-ynyl)benzylamino)-9H-purin-9-yl)-2,3-dihydroxybicyclo[3.1.0]hexane-1-carboxylic acid-N-methylamide]
2 | 1290 ± 290 | 30.1 ± 13 | 25.2 | – | CNC(=O)[C@@]12C[C@@H]1[C@@H](n1cnc3c(NCc4cccc(C#CCCCCCc5cn(-c6ccc(F)c([N+](=O)[O-])c6)nn5)c4)nc(Cl)nc31)[C@H](O)[C@@H]2O [Compound 205, (1S,2R,3S,4R,5S)-4-(2-Chloro-6-(3-(7-(1-(4-fluoro-3-nitrophenyl)-1H-1,2,3-triazol-4-yl)hept-1-ynyl)benzylamino)-9H-purin-9-yl)-2,3-dihydroxybicyclo[3.1.0]hexane-1-carboxylic acid-N-methylamide]
3 | 1720 ± 240 | 21.8 ± 5.3 | 17 | – | CNC(=O)[C@@]12C[C@@H]1[C@@H](n1cnc3c(NCc4cccc(C#CCCCCc5cn(C67CC8CC(CC(C8)C6)C7)nn5)c4)nc(Cl)nc31)[C@H](O)[C@@H]2O [Compound 206, (1S,2R,3S,4R,5S)-4-(2-Chloro-6-(3-(6-(1-(adamantyl)-1H-1,2,3-triazol-4-yl)hex-1-ynyl)benzylamino)-9H-purin-9-yl)-2,3-dihydroxybicyclo[3.1.0]hexane-1-carboxylic acid-N-methylamide]
4 | – | 2500 ± 640 | 44.1 | 48.5 | C#CCCCCC#Cc1cccc(CNc2nc(Cl)nc3c2ncn3[C@H]2[C@H](O)[C@H](O)[C@@H]3C[C@@H]32)c1 [Compound 212, (1R,2R,3S,4R,5S)-4-(2-Chloro-6-(3-(octa-1,7-diynyl)benzylamino)-9H-purin-9-yl) bicyclo[3.1.0]hexane-2,3-diol]
5 | – | 897 ± 20 | 16.7 | 11 | O=[N+]([O-])c1cc(-n2cc(CCCC#Cc3cccc(CNc4nc(Cl)nc5c4ncn5[C@H]4[C@H](O)[C@H](O)[C@@H]5C[C@@H]54)c3)nn2)ccc1F [Compound 214, (1R,2R,3S,4R,5S)-4-(2-Chloro-6-(3-(5-(1-(4-fluoro-3-nitrophenyl)-1H-1,2,3-triazol-4-yl)pent-1-ynyl)benzylamino)-9H-purin-9-yl)-bicyclo[3.1.0]hexane-2,3-diol]
6 | – | 933 ± 720 | 8.2 | 24.3 | O=[N+]([O-])c1cc(-n2cc(CCCCC#Cc3cccc(CNc4nc(Cl)nc5c4ncn5[C@H]4[C@H](O)[C@H](O)[C@@H]5C[C@@H]54)c3)nn2)ccc1F [Compound 215, (1R,2R,3S,4R,5S)-4-(2-Chloro-6-(3-(6-(1-(4-fluoro-3-nitrophenyl)-1H-1,2,3-triazol-4-yl)hex-1-ynyl)benzylamino)-9H-purin-9-yl)-bicyclo[3.1.0]hexane-2,3-diol]
7 | – | 521 ± 250 | 18 | 29.5 | O=[N+]([O-])c1cc(-n2cc(CCCCCC#Cc3cccc(CNc4nc(Cl)nc5c4ncn5[C@H]4[C@H](O)[C@H](O)[C@@H]5C[C@@H]54)c3)nn2)ccc1F [Compound 216, (1R,2R,3S,4R,5S)-4-(2-Chloro-6-(3-(7-(1-(4-fluoro-3-nitrophenyl)-1H-1,2,3-triazol-4-yl)hept-1-ynyl)benzylamino)-9H-purin-9-yl)bicyclo[3.1.0]hexane-2,3-diol]
8 | – | 9.1 ± 1.9 | 19.3 | 38 | CNC(=O)[C@@]12C[C@@H]1[C@@H](n1cnc3c(NCc4cn(-c5ccc(F)c([N+](=O)[O-])c5)nn4)nc(Cl)nc31)[C@H](O)[C@@H]2O [Compound 219a, (1S,2R,3S,4R,5S)-4-(2-Chloro-6-((1-(4-fluoro-3-nitrophenyl)-1H-1,2,3-triazol-4-yl)methylamino)-9H-purin-9-yl)-2,3-dihydroxy-N-methylbicyclo[3.1.0]hexane-1-carboxamide]
